We go through four molecules from PMC10046961, “High-Throughput Screening Assay for Detecting Drug-Induced Changes in Synchronized Neuronal Oscillations and Potential Seizure Risk Based on Ca^2+ Fluorescence Measurements in Human Induced Pluripotent Stem Cell (hiPSC)-Derived Neuronal 2D and 3D Cultures” (Cells, 2023).

Test [1] deals with hiPSC-derived neurons co-cultured with human primary astrocytes in 2D. Description: Ca2+ transient oscillation assay (FDSS), 2D co-culture. The class given is cell-based. As to conditions: for effect on peak number / Ca2+ neuronal oscillations, in words: 2D format; for activation at 1.11 µM / activation at 3.33 µM / activation at 10 µM / activation at 30 µM / activation at 0.37 µM: Homo sapiens, 1 h. The source says:
(§1) In this study, we used cryopreserved excitatory neurons that were differentiated from human induced pluripotent stem cells (hiPSCs; Cat #: EX-SeV-CW50065) (Elixirgen Scientific, Inc., Baltimore, MD, USA). The hiPSCs used, namely, CW50065 were derived from a healthy person and distributed by the California Institute of Regenerative Medicine Human Induced Pluripotent Stem Cell Repository. Human iPSC-derived excitatory neurons were differentiated from CW50065 using a proprietary cocktail of differentiation-inducing factors called Quick-Neuron™ EX-SeV (Batch number: EX-SeV-CW50065-L; Elixirgen Scientific, Inc.), cryopreserved 3 days after differentiation induction and distributed. Human iPSC-derived excitatory neurons were recovered from cryopreservation and maintained essentially as instructed by the manufacturer.
(§2) Cryopreserved human primary astrocytes (#N7805100, Thermo Fisher Scientific, Waltham, MA, USA) were recovered as instructed by the manufacturer and seeded in a 10 cm dish at the density of 2,000,000 cells. The culture was maintained using the Human Astrocytes Kit (#N7805200, Thermo Fisher Scientific) for 12 days. Half of the culture medium was replaced with fresh medium every 2–3 days during the culture period. These astrocytes were harvested using StemPro™ Accutase™ Cell Dissociation Reagent (#A1110501, Thermo Fisher Scientific) when they reached confluency. These cells were cryopreserved in STEM-CELLBANKER® GMP grade (ZENOGEN PHARMA, Kohriyama, Fukushima Japan) at the density of 2,000,000 cells per vial as working stocks for co-culture with neurons in 2D and 3D conditions described below. After a working stock was recovered, astrocytes were directly mixed with hiPSC-derived neurons for plating without further expansion.
Live neurons (hiPSC neurons) and human primary astrocytes were recovered from cryopreservation as described above and seeded in each well of 384-well plates at the density of 10,000 cells (HiPSC-cortical neurons) and human primary astrocytes at 2500 cells (ratio 4:1). These co-cultures were maintained under the medium conditions recommended by the manufacturer, namely Medium N(G2P), to complete the differentiation of excitatory neurons for the first week. […] Half of the culture medium was replaced with fresh medium every 3–4 days during the culture period.
After the incubation, the culture medium containing Cal-520 was replaced with 50 μL of HBSS supplemented with 0.1 mM MgCl2, 2 mM CaCl2, 10 mM HEPES, and 10 mM glucose and incubated at 37 ℃ for 15 min.
(§3) Prior to the fluorescence measurements, all wells to be measured were treated with 0.04% dimethyl sulfoxide (DMSO) to stabilize the oscillation signal. The first recording started 10 min after the addition of DMSO for each plate for 20 min. The effects of the test compound were recorded again starting 60 min after the administration of compounds, for 20 min.
Twenty-five compounds (Table 1) were first dissolved in either DMSO (most compounds) or distilled water depending on the compound, and further diluted with PBS to produce stock solutions concentrated 10-fold. […] The final concentration of DMSO was adjusted to 0.1%. Changes in the fluorescence intensity (FI) produced by Ca^2+ flux were measured at 37 °C for all wells of a 384-well plate simultaneously using the FDSS/µCell system (#C13299, Hamamatsu Photonics, Hamamatsu, Shizuoka, Japan). The excitation and the emission wavelengths were 470 nm and 540 nm, respectively. The recording duration was 20 min with a sampling frequency of 2 Hz for cells cultured under 2D conditions and 10 Hz for cells cultured under 3D conditions.

The subject of test [2] is hiPSC-derived neurons co-cultured with human primary astrocytes in 3D. As to the kind of experiment: Ca2+ transient oscillation assay (FDSS), 3D spheroids. The settings on record: for Area under the curve - 3D Mean / Peak Number—3D Mean / Peak amplitude - 3D Mean / Peak width - 3D Mean / Peak-to-peak interval - 3D Mean: 60 min. The test is classed as cell-based.
Source text: as §1, §2
We used U-shaped-bottom 96-well plates (#174925, Thermo Fisher Scientific) without any prior coating to make a spheroid in each well. Neurons and astrocytes were seeded and maintained as described for 2D cultures, except for the following modifications. First, neurons and astrocytes were seeded in each well of the 96-well plates at the density of 8000 hiPSC neurons with 8000 human primary astrocytes (8000)/well (ratio 1:1). Second, when the differentiation of excitatory neurons was completed one week after seeding, cells were fed with BrainPhys^TM Neuronal Medium (#05793, […] Technologies, Vancouver, BC, Canada) supplemented with 2% SM1 Neuronal Supplement, 1% N2 Supplement-A, and 10% Neuron culture medium for 5 weeks.
Cells maintained as spheroids (3D) in the U-shaped-bottom 96-well plates were transferred into 384-well spheroid plates (#4516, Merck, Corning, NY, USA) with 25 µL of the culture medium. A Ca^2+-indicating dye solution including […] was prepared using the EarlyTox™ Cardiotoxicity Kit (#R8211, Molecular Devices, LLC, San Jose, CA, USA) according to the manufacturer. Then, the same volume of the dye solution was dispensed into each well.
as §3
Twenty-five compounds (Table 1) were first dissolved in either DMSO (most compounds) or distilled water depending on the compound, and further diluted with PBS to produce stock solutions concentrated 10-fold. Then, 5 μL of each compound solution was injected into each well using an automatic pipetting robot (#4505, ASSIST PLUS pipetting robot, Integra Biosciences Corp., Hudson, NH, USA), so that the final concentration of each compound was 1-fold nominal in the well.

The mark [3] stands for this setting: read-out: Area under the curve - 2D Mean.
Where [4] appears, read: read-out: Peak amplitude - 2D Mean.
The mark [5] stands for this setting: read-out: Peak-to-peak interval - 2D Mean.

Like-named read-outs stand apart in the source and are kept apart here. Marks after values point to notes of the source that are not given here.

In the case of `OC(c1cc(C(F)(F)F)nc2c(C(F)(F)F)cccc12)C1CCCCN1` (stereo not shown) [Mefloquine], the “effect on peak number / Ca2+ neuronal oscillations, in words” value in test [1] was “significantly reduced peak number”. Moreover, the activation at 1.11 µM in test [1] (1.11 µM, 60 min, read-out: Area under the curve - 2D Mean) was 14.8%; in test [1] (1.11 µM, 60 min, read-out: Peak Number—2D Mean), -30.8%; in test [1] (1.11 µM, 60 min, read-out: Peak amplitude - 2D Mean) it was 0.5%; in test [1] (1.11 µM, 60 min, read-out: Peak width - 2D Mean), 15.8%; in test [1] (1.11 µM, 60 min, read-out: Peak-to-peak interval - 2D Mean), 25%. The activation at 3.33 µM in test [1] (3.33 µM, 60 min, read-out: Area under the curve - 2D Mean) was -47.2%; in test [1] (3.33 µM, 60 min, read-out: Peak Number—2D Mean) it was 16.2%; in test [1] (3.33 µM, 60 min, read-out: Peak amplitude - 2D Mean), -21.2%; in test [1] (3.33 µM, 60 min, read-out: Peak width - 2D Mean), -47%; in test [1] (3.33 µM, 60 min, read-out: Peak-to-peak interval - 2D Mean), 48.2%. The activation at 10 µM is -100% in test [1] (10 µM, 60 min, read-out: Area under the curve - 2D Mean); -100% in test [1] (10 µM, 60 min, read-out: Peak Number—2D Mean); -100% in test [1] (10 µM, 60 min, read-out: Peak amplitude - 2D Mean); -100% in test [1] (10 µM, 60 min, read-out: Peak width - 2D Mean); -100% in test [1] (10 µM, 60 min, read-out: Peak-to-peak interval - 2D Mean). Besides, the activation at 30 µM is -100% in test [1] (60 min, read-out: Area under the curve - 2D Mean); -100% in test [1] (60 min, read-out: Peak Number—2D Mean); -100% in test [1] (60 min, read-out: Peak amplitude - 2D Mean); -100% in test [1] (60 min, read-out: Peak width - 2D Mean); -100% in test [1] (60 min, read-out: Peak-to-peak interval - 2D Mean). The “Area under the curve - 3D Mean” value in test [2] (1.11 µM) stood at 159.0 % change from baseline; in test [2] (3.33 µM), 143.4 % change from baseline; in test [2] (10 µM), 135.6 % change from baseline; in test [2] (30 µM), 74.4 % change from baseline. The “Peak Number—3D Mean” value was 2.8 % change from baseline in test [2] (1.11 µM), −11.1 % change from baseline in test [2] (3.33 µM), 7.2 % change from baseline in test [2] (10 µM) and −3.7 % change from baseline in test [2] (30 µM). Besides, the “Peak amplitude - 3D Mean” value in test [2] (1.11 µM) was found to be 149.7 % change from baseline; in test [2] (3.33 µM), 139.0 % change from baseline; in test [2] (10 µM), 135.0 % change from baseline; in test [2] (30 µM) it was 99.9 % change from baseline. In addition, the “Peak width - 3D Mean” value in test [2] (1.11 µM) is 2.6 % change from baseline; in test [2] (3.33 µM), 1.4 % change from baseline; in test [2] (10 µM), −1.5 % change from baseline; in test [2] (30 µM) it was −10.9 % change from baseline. The “Peak-to-peak interval - 3D Mean” value in test [2] (1.11 µM) worked out at 7.1 % change from baseline; in test [2] (3.33 µM), 1.7 % change from baseline; in test [2] (10 µM), 12.8 % change from baseline; in test [2] (30 µM), 8.3 % change from baseline.

As for `C=C(C)[C@H]1CN[C@H](C(=O)O)[C@H]1CC(=O)O` [Kainic Acid], the “response of positive controls on Ca2+ transient oscillations” value in test [1] (2D, 4-AP 30 µM, kainic acid 100 µM) is on record as “significant responses”; in test [2] (3D, 4-AP 30 µM, kainic acid 100 µM) it was “significant responses”. Also, in test [1] (4-AP at 30 µM, kainic acid at 10 µM), the “change of Ca2+ neuronal oscillations (Figure 1)” value is reported as “inhibition”. The activation at 0.37 µM in test [1] (setting [3]) is 32.3%; in test [1] (read-out: Peak Number—2D Mean), 21%; in test [1] (setting [4]) it was 11.8%; in test [1] (read-out: Peak width - 2D Mean), 22%; in test [1] (setting [5]), -1.2%. For the same molecule, the activation at 1.11 µM is 25.2% in test [1] (setting [3]); 26.8% in test [1] (read-out: Peak Number—2D Mean); -2.2% in test [1] (setting [4]); 37.4% in test [1] (read-out: Peak width - 2D Mean); -19.6% in test [1] (setting [5]). For the same molecule, the activation at 3.33 µM was -48.2% in test [1] (setting [3]); -53.3% in test [1] (read-out: Peak Number—2D Mean); -55% in test [1] (setting [4]); -23% in test [1] (read-out: Peak width - 2D Mean); -53% in test [1] (setting [5]). In addition, the activation at 10 µM in test [1] (setting [3]), in test [1] (read-out: Peak Number—2D Mean), in test [1] (setting [4]), in test [1] (read-out: Peak width - 2D Mean) and in test [1] (setting [5]) was -100% throughout. The “Area under the curve - 3D Mean” value was determined as 120.5 % change from baseline in test [2] (0.37 µM), 141.9 % change from baseline in test [2] (1.11 µM), 174.3 % change from baseline in test [2] (3.33 µM) and 58.3 % change from baseline in test [2] (10 µM). Further, the “Peak Number—3D Mean” value is 1.3 % change from baseline in test [2] (0.37 µM), 16.4 % change from baseline in test [2] (1.11 µM), 18.7 * % change from baseline in test [2] (3.33 µM) and 102.8 ** % change from baseline in test [2] (10 µM). Further, the “Peak width - 3D Mean” value in test [2] (0.37 µM) is 4.9 % change from baseline; in test [2] (1.11 µM) it was 10.6 % change from baseline; in test [2] (3.33 µM), 41.9 % change from baseline; in test [2] (10 µM), −20.1 % change from baseline. In addition, the “Peak-to-peak interval - 3D Mean” value in test [2] (0.37 µM) is given as 0.2 % change from baseline; in test [2] (1.11 µM) it was −16.0 % change from baseline; in test [2] (3.33 µM), −13.0 % change from baseline; in test [2] (10 µM), −45.2 % change from baseline.

In the case of `NC[C@H](O)c1ccc(O)c(O)c1` [norepinephrine], the “effect on peak number / Ca2+ neuronal oscillations, in words” value in test [1] is recorded as “significantly reduced peak number”.

With `NCC(=O)O` [glycine], the “effect on peak number / Ca2+ neuronal oscillations, in words” value in test [1] is recorded as “significantly reduced peak number”.
